This experiment deals with T1, glutaminase C (GAC) (Homo sapiens, UniProt O94925, Y466W).
T1 sequence (O94925 72-550 Y466W): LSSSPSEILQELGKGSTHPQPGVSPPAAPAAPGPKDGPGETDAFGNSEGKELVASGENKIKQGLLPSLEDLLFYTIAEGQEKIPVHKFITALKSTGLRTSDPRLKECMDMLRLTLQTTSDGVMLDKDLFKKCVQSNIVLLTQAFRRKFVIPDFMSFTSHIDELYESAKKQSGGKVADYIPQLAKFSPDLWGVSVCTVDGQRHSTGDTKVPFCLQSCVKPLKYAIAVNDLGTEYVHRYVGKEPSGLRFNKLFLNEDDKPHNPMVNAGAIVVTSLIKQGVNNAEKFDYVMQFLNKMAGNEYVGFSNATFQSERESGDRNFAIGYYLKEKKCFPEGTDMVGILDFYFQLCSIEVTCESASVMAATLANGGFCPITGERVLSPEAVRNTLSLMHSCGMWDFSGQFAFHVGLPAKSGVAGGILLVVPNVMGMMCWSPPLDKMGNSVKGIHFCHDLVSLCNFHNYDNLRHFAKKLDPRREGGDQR
Briefly: Trp466 fluorescence titration of phosphate at […] glutamine. In kind it is binding.

`O=P(O)(O)O` [inorganic phosphate] came in with a dissociation constant Kd of 8.5 ± 1.9 mM.

As usually defined, the Kd is the constant that tells how readily two partners part at equilibrium. Higher therefore signals lower affinity.

(Values after publication PMC8800119 (The Journal of Biological Chemistry, 2022).)
